Measured values as given in patent US10278942B2 (PELOTON THERAPEUTICS, INC., priority 2015, dated 2019).
Read-outs that look alike come from different tables or passages of the source.

Tests used:
[1] = biological target: T1, HIF-2α HIS TAG-PASB Domain (Homo sapiens, UniProt Q99814); test: HIF-2α Scintillation Proximity Assay (SPA); format: binding
T1 construct: 100 nM HIF-2α HIS TAG-PASB Domain
How it was run: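 IC50 values rest on percent inhibition, where the sample signal is scaled between high and low controls. Wells contain about 100 μL: compound dispensed as 2 μL of DMSO solution, 88 μL protein-probe mix and 10 μL of beads.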

786-O-Hif-Luc cells = test: Luciferase Assay (HIF responsive elements reporter)
Procedure: A pool of infected cells were then selected against 2 μg/mL of puromycin (P8833, Sigma) for 10 days followed by limited dilution to select single clones. […] Each concentration was tested in triplicate. After about 24 hours, luciferase activity was determined using ONE-Glo Luciferase Assay Reagent (E6110, Promega) following the manufacturer's recommended procedure. EC50 were calculated using Dotmatics software.

[2] = read-out: Scintillation Proximity Assay IC50
[3] = read-out: Mean Luciferase EC50 (nM), 786-O-Hif-Luc cells
[4] = read-out: Mean Luciferase EC50 (nM)

T1 sequence (Q99814 240-350 limits assumed): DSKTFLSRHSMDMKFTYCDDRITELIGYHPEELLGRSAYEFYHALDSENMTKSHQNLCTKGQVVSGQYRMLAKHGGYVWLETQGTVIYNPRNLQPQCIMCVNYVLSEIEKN

SMILES	IC50 [1, 2]	EC50 (786-O-Hif-Luc cells; [3])	EC50 (786-O-Hif-Luc cells; [4])	other results
CO[C@H]1C[C@H](Oc2ccc(S(=O)(=O)C(F)(F)F)c3c2CC(F)(F)[C@H]3O)C1 [Compound 714]	50 to 249 nM	250 to 1000 nM	–	–
O=S(=O)(c1ccc(-c2cccc(Cl)c2)c2c1[C@H](O)C(F)(F)C2)C(F)(F)F [Compound 485, (S)-4-(3-chlorophenyl)-2,2-difluoro-7-((trifluoromethyl)sulfonyl)-2,3-dihydro-1H-inden-1-ol]	< 50 nM	> 1000 nM	–	–
CS(=O)(=O)c1ccc(OC[C@@H]2CC2(F)F)c2c1[C@H](O)C(F)(F)[C@@H]2F [Compound 768]	50 to 249 nM	250 to 1000 nM	–	–
NC(=O)C1CCc2c(OCC(F)F)ccc(C(F)(F)F)c21 (stereo not drawn) [Compound 692]	> 1000 nM	> 1000 nM	–	–
N#Cc1cccc(Oc2ccc(S(=O)(=O)C(F)(F)F)cc2Br)c1 [Compound 117]	50 to 249 nM	> 1000 nM	–	–
O=S(=O)(c1ccc(Cn2cncn2)c2c1[C@H](O)C(F)(F)C2)C(F)(F)F [Compound 534]	> 1000 nM	> 1000 nM	–	–
OC1CCc2c(OCC(F)F)ccc(C(F)(F)F)c21 (stereo not drawn) [Compound 696]	50 to 249 nM	50 to 249 nM	–	–
CS(=O)(=O)c1ccc(OC2CC(F)(F)C2)c2c1[C@H](O)[C@H](F)C2 [Compound 585]	< 50 nM	250 to 1000 nM	–	–
O=S(=O)(c1ccc(OCCCO)c2c1C(O)C(F)(F)C2)C(F)(F)F (stereo not drawn) [Compound 612]	250 to 1000 nM	> 1000 nM	–	–
O=S(=O)(c1ccc(OC2CCCC2)c2c1C(O)CC2)C(F)(F)F (stereo not drawn) [Compound 603]	250 to 1000 nM	> 1000 nM	–	–
C#Cc1c(Oc2cc(F)cc(C#N)c2)ccc2c1C(O)C(F)(F)S2(=O)=O (stereo not drawn) [Compound 409]	50 to 249 nM	50 to 249 nM	–	–
C[S+]([O-])c1ccc(Oc2cc(F)cc(C#N)c2)c2c1[C@H](O)C(F)(F)C2 (stereo partly drawn) [Compound 272]	> 1000 nM	> 1000 nM	–	–
CC(C)Oc1ccc2c(c1C#N)C(C)(O)C(F)(F)S2(=O)=O (stereo not drawn) [Compound 456]	–	> 1000 nM	–	–
CC1(C#N)CC(Oc2ccc(S(C)(=O)=O)c3c2[C@@H](F)C(F)(F)[C@H]3O)C1 (stereo partly drawn) [Compound 766]	–	250 to 1000 nM	–	–
[2H]C([2H])([2H])S(=O)(=O)c1ccc(Oc2cc(F)cc(C#N)c2)c2c1[C@]([2H])(O)C(F)(F)C2 [Compound 229]	–	–	< 50 nM	–
N#Cc1cncc(Oc2ccc(S(=O)(=O)C(F)(F)F)c3c2CC(F)(F)[C@H]3O)c1 [Compound 235]	–	–	< 50 nM	–
N#Cc1cc(F)cc(Oc2ccc(S(=O)(=O)C(F)(F)F)c3c2CC(F)(F)[C@H]3N)c1 [Compound 290]	–	–	50 to 249 nM	–

SMILES	IC50 [1, 2]	EC50 (786-O-Hif-Luc cells; [3])	EC50 (786-O-Hif-Luc cells; [4])	other results
N#Cc1cc(F)cc(Oc2ccc(S(N)(=O)=O)c3c2[C@@H](F)[C@@H](F)[C@H]3O)c1 [Compound 336]	–	50 to 249 nM	–	–
Cn1cc(Oc2ccc(S(=O)(=O)C(F)(F)F)c3c2CC(F)(F)[C@H]3O)cn1 [Compound 224]	–	50 to 249 nM	–	–
CS(=O)(=O)c1ccc(Oc2cc(F)cc(C#N)c2)c2c1[C@H](O)[C@H](F)[C@@H]2F [Compound 289, 3-[(1S,2S,3R)-2,3-difluoro-1-hydroxy-7-methylsulfonyl-indan-4-yl]oxy-5-fluoro-benzonitrile]	–	–	< 50 nM	–
N#CC1(COc2ccc3c(c2C(F)F)C(O)C(F)(F)S3(=O)=O)CC1 (stereo not drawn) [Compound 455]	–	> 1000 nM	–	–
O=S(=O)(c1ccc(Oc2ccc(F)c3[nH]ncc23)c2c1C(O)C(F)(F)C2)C(F)(F)F (stereo not drawn) [Compound 241]	–	50 to 249 nM	–	–
N[C@@H]1c2c(ccc(Oc3cc(F)cc(Br)c3)c2Br)S(=O)(=O)C1(F)F [Compound 462]	–	250 to 1000 nM	–	–
N#Cc1cccc(Oc2ccc(S(=O)(=O)C(F)F)c3c2CC[C@H]3O)c1 [Compound 156]	–	–	250 to 1000 nM	–
O=S(=O)(c1ccc(Oc2ccc(F)c3[nH]ncc23)c2c1[C@H](O)C(F)(F)C2)C(F)(F)F [Compound 266]	–	< 50 nM	–	–
N#Cc1cc(F)cc(Oc2ccc(S(=O)(=O)C(F)(F)F)c3c2CC[C@H]3O)c1 [Compound 57]	–	–	50 to 249 nM	–
NC(=O)c1cc(S(=O)(=O)C(F)(F)F)ccc1Oc1cc(F)cc(Cl)c1 [Compound 125]	–	–	–	IC50 ([1]; Scintillation Proximity Assay IC50 (nM)): > 1000 nM
N#Cc1cc(F)cc(Oc2ccc(S(N)(=O)=O)c3c2[C@@H](F)C(F)(F)[C@H]3O)c1 [Compound 338]	–	–	< 50 nM	–
N#Cc1cc(F)cc(Oc2ccc(S(N)(=O)=O)c3c2[C@H](F)C(F)(F)[C@H]3O)c1 [Compound 339]	–	–	250 to 1000 nM	–
O=S(=O)(CF)c1ccc(Oc2cccc3sccc23)c2c1C(O)CC2 (stereo not drawn) [Compound 239]	> 1000 nM	–	–	–
CC1(C)CCC(=O)[C@@H](c2ccc(S(=O)(=O)C(F)(F)F)c3c2CC(F)(F)[C@H]3O)C1 [Compound 546]	> 1000 nM	–	–	–
O=S(=O)(c1ccc(CCCO)c2c1C(O)CC2)C(F)(F)F (stereo not drawn) [Compound 522, 4-(3-hydroxypropyl)-7-((trifluoromethyl)sulfonyl)-2,3-dihydro-1H-inden-1-ol]	250 to 1000 nM	–	–	–
N#Cc1cc(F)cc(Oc2ccc(S(=O)(=O)C(F)(F)F)c3c2CC(F)C3N)c1 (stereo not drawn) [Compound 268]	> 1000 nM	–	–	–
CCCOc1ccc(S(=O)(=O)C(F)(F)F)c2c1CCC2O (stereo not drawn) [Compound 583]	> 1000 nM	–	–	–

Now from value to compound, other results behind:

IC50 [1, 2]	EC50 (786-O-Hif-Luc cells; [3])	EC50 (786-O-Hif-Luc cells; [4])	SMILES	other results
< 50 nM	50 to 249 nM	–	N#Cc1cc(F)cc(Oc2ccc(S(=O)(=O)CF)c3c2CC[C@H]3O)c1 [Compound 62]	–
–	–	< 50 nM	[2H][C@]1(O)c2c(S(C)(=O)=O)ccc(Oc3cc(F)cc(C#N)c3)c2CC1(F)F [Compound 247]	–
–	–	50 to 249 nM	CS(=O)(=O)c1ccc(Oc2cc(F)cc(C#N)c2)c2c1[C@H](N)C(F)(F)C2 [Compound 165]	–
–	< 50 nM	–	N#Cc1cc(F)cc(Oc2ccc(S(=O)(=O)C(F)F)c3c2CC(F)(F)C3O)c1 (stereo not drawn) [Compound 11]	–
50 to 249 nM	> 1000 nM	–	N=S(=O)(c1ccc(Oc2cc(F)cc(Cl)c2)c(Br)c1Cl)C(F)(F)F (stereo not drawn) [Compound 75]	–
250 to 1000 nM	> 1000 nM	–	CS(=O)(=O)c1ccc(Oc2cc(F)cc(C#N)c2)c(C#N)c1Cl [Compound 152]	–
–	50 to 249 nM	–	O=S(=O)(CF)c1ccc(Oc2cc(F)cc(Cl)c2)c2c1[C@H](O)CC2 [Compound 61]	–
–	250 to 1000 nM	–	N#Cc1cccc(Oc2ccc(S(=O)(=O)C(F)F)c(CO)c2Cl)c1 [Compound 43]	–
–	50 to 249 nM	–	O=S1(=O)c2ccc(Oc3cc(F)cc(F)c3)c(C(F)F)c2C(O)C1F (stereo not drawn) [Compound 369]	–
–	> 1000 nM	–	CS(=O)(=O)c1ccc(Oc2cc(F)cc(C#N)c2)c2c1C(O)CC2 (stereo not drawn) [Compound 222]	–
–	–	50 to 249 nM	CNS(=O)(=O)c1ccc(Oc2cc(F)cc(F)c2)c2c1[C@H](O)C(F)(F)C2 [Compound 251]	–
–	–	50 to 249 nM	CS(=O)(=O)c1ccc(Oc2cc(F)cc(C#N)c2)c2c1C(O)C(F)(F)C2 (stereo not drawn) [Compound 223]	–
–	250 to 1000 nM	–	CS(=O)(=O)c1ccc(Oc2cc(F)cc(C#N)c2)c2c1[C@H](O)CC2 [Compound 287]	–
–	–	50 to 249 nM	N#Cc1cc(F)cc(Oc2ccc(S(N)(=O)=O)c3c2CC(F)(F)[C@H]3O)c1 [Compound 252]	–
–	50 to 249 nM	–	N#Cc1cc(F)cc(Oc2ccc(S(=O)(=O)C(F)F)c3c2CC(F)(F)[C@@H]3O)c1 [Compound 237]	–
–	> 1000 nM	–	O=[N+]([O-])c1ccc(Oc2cc(F)cc(Cl)c2)c2c1C(O)CC2 (stereo not drawn) [Compound 255]	–
–	250 to 1000 nM	–	CS(=O)(=O)c1ccc(Oc2cc(F)cc(C#N)c2)c2c1[C@H](O)[C@H](F)[C@H]2F [Compound 294]	–
–	250 to 1000 nM	–	CS(=O)(=O)c1ccc(Oc2cc(F)cc(Cl)c2)c(C(F)F)c1CO [Compound 54]	–

IC50 [1, 2]	EC50 (786-O-Hif-Luc cells; [3])	EC50 (786-O-Hif-Luc cells; [4])	SMILES	other results
–	< 50 nM	–	N#Cc1cc(F)cc(Oc2ccc(S(=O)(=O)C(F)F)c3c2CC(F)(F)[C@H]3O)c1 [Compound 15, 3-[(1S)-7-(difluoromethylsulfonyl)-2,2-difluoro-1-hydroxy-indan-4-yl]oxy-5-fluoro-benzonitrile]	–
–	< 50 nM	–	N#Cc1cc(F)cc(Oc2ccc(S(=O)(=O)CCl)c3c2CC(F)(F)[C@H]3O)c1 [Compound 215]	–
–	–	> 1000 nM	CS(=O)(=O)c1ccc(Oc2cc(F)cc(C#N)c2)c2c1[C@@H](O)C(F)(F)C2 [Compound 226]	–
–	–	< 50 nM	NS(=O)(=O)c1ccc(Oc2cc(F)cc(F)c2)c2c1[C@H](O)C(F)(F)C2 [Compound 256]	–
–	> 1000 nM	–	Cc1c(S(C)(=O)=O)ccc(Oc2cc(F)cc(Cl)c2)c1C#N [Compound 50]	–
–	–	< 50 nM	N#Cc1cc(Cl)cc(Oc2ccc(S(=O)(=O)CF)c3c2CC(F)(F)[C@H]3O)c1 [Compound 167]	–
–	–	50 to 249 nM	CNS(=O)(=O)c1ccc(Oc2cc(F)cc(C#N)c2)c2c1[C@H](O)C(F)(F)C2 [Compound 254]	–
–	–	50 to 249 nM	CCS(=O)(=O)c1ccc(Oc2cc(F)cc(C#N)c2)c2c1[C@H](O)C(F)(F)C2 [Compound 206]	–
–	–	250 to 1000 nM	C[C@H]1C[C@@H](O)c2c(S(=O)(=O)C(F)F)ccc(Oc3cc(F)cc(Cl)c3)c21 [Compound 7a]	–
–	–	< 50 nM	CS(=O)(=O)c1ccc(Oc2cc(F)cc(C#N)c2)c2c1C(O)C(F)C2 (stereo not drawn) [Compound 232]	–
–	250 to 1000 nM	–	N#Cc1cc(F)cc(Oc2ccc(S(=O)(=O)C(F)F)c(CO)c2Cl)c1 [Compound 42]	–
> 1000 nM	–	–	O=S(=O)(c1ccc(Oc2cc(F)cc(Cl)c2)c(CO)c1CO)C(F)F [Compound 87]	–
–	–	< 50 nM	CS(=O)(=O)c1ccc(Oc2cc(F)cc(C#N)c2)c2c1[C@H](O)C(F)(F)C2 [Compound 163, (S)-3-((2,2-Difluoro-1-hydroxy-7-(methylsulfonyl)-2,3-dihydro-1H-inden-4-yl)oxy)-5-fluorobenzonitrile]	–
< 50 nM	–	–	CS(=O)(=O)c1ccc(Oc2cncc(Cl)c2)c2c1[C@H](O)C(F)(F)[C@@H]2F [Compound 331]	–
–	–	250 to 1000 nM	CS(=O)(=O)c1ccc(Oc2cc(F)cc(C#N)c2)c2c1[C@H](O)[C@@H](F)C2 [Compound 271]	–
–	–	< 50 nM	CS(=O)(=O)c1ccc(Oc2cc(F)cc(C#N)c2)c2c1[C@H](O)[C@H](F)C2 [Compound 231]	–
–	< 50 nM	–	O=S(=O)(c1ccc(Oc2cncc(Cl)c2)c2c1[C@H](O)C(F)(F)C2)C(F)F [Compound 25]	–
